Tests used:
[1] = system: hESCs; test: uptake of FITC-labeled recombinant peptide by hESCs (immunofluorescence); format: cell-based, human
[2] = system: hESCs; test: embryoid body differentiation of ELA-treated hESCs (qPCR); format: cell-based, human
Procedure: Embryoid body differentiation was performed by plating 1 million cells per well of an Aggrewell 400 plate in Aggrewell Medium (Stem Cell Technologies) followed by harvesting and replating into low-adhesion plates (Corning).
After the indicated time periods, embryoid bodies were harvested and RNA extracted using RNeasy kit ([…]). qPCR reactions were carried out using either Universal FastSlart SYBR Green Mastermix (Roche) or using the Universal Probe Library system (Roche) in tandem with Taqman Fast Mastermix (Invitrogen). Primer sequences can be found in Table E1.

[3] = system: hESCs; test: directed endoderm differentiation of hESCs, SOX17+ cell count; format: cell-based, human; conditions: 2.5 uM ELA peptide up to day 3, count on day 5
Procedure: Shef4TetR5-shELA and Shef4TetR5-shβ2M cells were cultured in the presence (shELA and shβ2M respectively) or absence (Control) of 20 ng/ml doxycycline for 1 passage (4 days) and dissociated with Accutase. […] 24 hours later, the media was changed to Endo differentiation media 1 [RPMI 1640 (Gibco), 1× B-27 supplement (Invitrogen), 50 ng/ml of Activin A (R&D Systems), 25 ng/ml BMP4 (R&D Systems) and 50 ng/ml bFGF (Invitrogen)] for 3 days. On day 3, the media was changed to Endo differentiation media 2 (RPMI 1640, B27, 50 ng/ml Activin) for 2 more days of culture. Rescue experiments were performed by adding 2.5 uM of ELA peptide to Shef4TetR5-shELA concurrently with doxycycline up to day 3, when the ELA peptide is no longer necessary as judged by downregulation of endogenous ELA.
On day 5, cells were fixed with 4% paraformaldehyde and stained with α SOX17 (AF1924, R&D Systems) and DAPI. For each well, three different randomly selected fields were imaged and the number of nuclei staining positive of SOXI 7 and DAPI were counted using a custom macro in ImageJ. A minimum of two wells per condition was used for each experiment, and a minimum of two independent experiments were performed to generate the results.

[4] = target: T1, CXCR4 (Homo sapiens, UniProt P61073); test: PathHunter β-Arrestin CXCR4 assay, activation; format: cell-based; conditions: β-Arrestin recruitment
Procedure: (§1) To detect activation of CXCR4 by ELA or SDF-1, recombinant ELA or SDF-1 were added in increasing concentrations for 90-180 minutes to cells stably expressing CXCR4 coupled to a downstream reporter. β-Arrestin recruitment was measured using the PathHunter® β-Arrestin CXCR4 assay (DiscoveRx). Interaction of CXCR4 with Arrestin was detected by Enzyme Fragment Complementation (EFC) between two complementary domains of β-galactosidase (β-Gal), one fused to CXCR4 and the other fused to β-Arrestin. β-Arrestin recruitment to CXCR4 results in complementation of the two domains to generate β-Gal activity. % Ac ? vity=100%×(mean RLU of test sample−mean RLU of vehicle control)/(mean MAX control ligand−mean RLU of vehicle control). To detect antagonism of SDF-1 by ELA, the assay was run in antagonist mode by measuring the EC50 of ELA in the presence of SDF-1 at EC80 concentration. To detect synergism between ELA and SDF-1, the assay was run in positive allosteric mode by measuring the EC50 of ELA in the presence of SDF-1 at EC20 concentration.

[5] = target: T1, CXCR4; test: PathHunter β-Arrestin CXCR4 assay, antagonist mode with SDF-1; format: cell-based; conditions: SDF-1 at EC80 concentration
Procedure: as §1

[6] = myocardial ischaemia-reperfusion injury, APELIN experiments repeated with ELABELA; format: in vivo; conditions: administered during reperfusion
Text: Peptides 2009; 30:1144-52. • Simpkin J C, Yellon D M, Davidson S M, Lim S Y, Wynne A M, Smith C C. […] Basic Res Cardiol 2007; 102:518-28.

[7] = artherosclerosis, APELIN experiments repeated with ELABELA; format: in vivo
Text: J Clin Invest 2008; 118:3343-54.
The experiments described in the above publication are repeated, with the replacement of APELIN with ELABELA.

[8] = erectile dysfunction, APELIN experiments repeated with ELABELA; conditions: in vivo
Text: J Sex Med. 2013 Apr. 11. doi: 10.11 l/jsm.12158.

[9] = system: hESCs; test: stress-induced apoptosis of hESCs by ActinomycinD; format: cell-based, human

T1 sequence (P61073 whole entry, the tested form may be a part): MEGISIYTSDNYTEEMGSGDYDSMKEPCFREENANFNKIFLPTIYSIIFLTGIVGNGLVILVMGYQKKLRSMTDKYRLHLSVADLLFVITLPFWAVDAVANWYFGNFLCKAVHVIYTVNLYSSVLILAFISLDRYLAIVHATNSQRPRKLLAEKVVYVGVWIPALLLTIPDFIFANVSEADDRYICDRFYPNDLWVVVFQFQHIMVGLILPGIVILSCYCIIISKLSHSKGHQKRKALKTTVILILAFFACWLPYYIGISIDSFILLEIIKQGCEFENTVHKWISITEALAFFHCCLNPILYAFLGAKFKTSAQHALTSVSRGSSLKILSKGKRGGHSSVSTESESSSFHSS

QRPVNLTMRRKLRKHNCLQRRCMPLHSRVPFP [ELA]
uptake by hESCs [1]: rapidly up-taken by hESCs | lineage bias during embryoid body differentiation [2]: not biased towards mesoderm or endoderm lineages | rescue of SOX17+ endoderm differentiation of shELA hESCs [3]: entirely rescued | activation of CXCR4 [4]: cannot activate CXCR4 | antagonism of SDF1-mediated CXCR4 activation [5]: preventing SDF1-mediated CXCR4 activation | infarct size [6]: significantly decrease infarct size | protection against artherosclerosis ([7]; Ang II): can protect against artherosclerosis | abdominal aortic aneurysm formation and rupture ([7]; in vivo): inhibit abdominal aortic aneurysm formation and rupture | erectile function [8]: significant restoration of erectile function | levels of MCL-1 [9]: rescued with exogenous ELA | levels of P53 protein following exposure to stress [9]: no apparent effect | BAX localisation ([9]; mitochondria versus cytoplasm): remained primarily in the cytoplasm
